In patent US4622327A, “2H-azeto[2,1-a]-isoquinoline derivatives and pharmaceutical compositions containing them” (Richter Gedeon Vegyeszeti Gyar R.T., priority 1983, dated 1986):

Assays:
[1] = tested on: hyperthermia induced with Brewer's yeast; test: Antipyretic activity (Brewer's yeast hyperthermia); assay type: in vivo, rats; conditions: for ED50: Rattus norvegicus, po, read-out: Antipyretic activity, ED50
Description: (§1) For the pharmacological tests CFLP (LATI) mice of both sexes, weighing 18 to 22 g each and male Han. Wistar (LATI) rats weighing 160 to 180 g each were used. The test materials were administered orally, in 30 mg/kg doses, in the form of a suspension containing 5% of Tween 80, one hour before the tests.
5. Antipyretic activity (rats)
Hyperthermia is induced in rats with Brewer's yeast suspension (0.5% of Brewer's yeast, 1% of arabic gum in a volume of 0.3 ml, s.c.). The animals are treated with the test materials 4 hours later, and the tracheal temperature of the animals is registered with an ELAB thermometer (typ. TE-3) for 4 hours. The antipyretic activity is expressed in percentage of the animals which have an at least one centrigrade lower temperature than the average of the temperature of the control group treated with the solvent (Nimegeers C. J. E. et al.: Arzneimittel Forsch. 25:15/9/1975/).

[2] = tested on: acetic acid-induced writhing syndrome; test: Analgesic activity (acetic acid writhing syndrome); assay type: in vivo, mice; conditions: for Analgesic activity: 30 mg/kg oral, change in writhing frequency vs control
Description: as §1
4. Analgesic activity (mice)
One hour after pretreatment, mice were administered 0.4 ml of a 0.6% acetic acid solution intraperitoneally, as a pain stimulus. The frequency of writhing syndrome is registered for 30 minutes. The changes observed as a result of treatment with the test compounds is related to the mean value of the frequency of writhing syndrome in the control group, and the difference is expressed in percentage (Koster R. et al.: Exp. Ther. 72:74/1941/).

[3] = tested on: pentylenetetrazole spasm; test: Metrazole spasm; assay type: in vivo; conditions: mice, 30 mg/kg oral, pentylenetetrazole 125 mg/kg s.c., observation one hour
Description: as §1
2. Metrazole spasm (mice)
After pretreatment the animals were administered 125 mg/kg of pentylenetetrazole subcutaneously.
Observation time: one hour (Everett L. M. and Richards R. K.: J. Pharmacol. Exp. Ther. 81, 402/1944/).

[4] = tested on: tonic, extensoric spasm; test: Maximum electroshock; assay type: in vivo; conditions: mice, 30 mg/kg oral, one hour before test
Description: as §1
1. Maximum electroshock (mice)
The shock was applied through a corneal electrode (20 mA, 0.2 msec, HSE Schockgerat typ. 207).

| SMILES | ED50 [1] [mg/kg] | antipyretic potency relative to Na-salicylate ([1]; rats) | decrease of the frequency of acetic acid-induced writhing syndrome ([2]; mice, 30 mg/kg) | Analgesic activity ([2]; mice) [%] | Antispasm activity, metrazole, b (tonic extensoric spasm) [3] | Antipyretic activity ([1]; rats, 30 mg/kg oral, % of animals with at least one centigrade lower temperature than control) [%] | Antispasm activity, max. electroshock [4] | analgesic effect in words ([2]; 30 mg/kg) | ED50 ([2]; Mus musculus, po, read-out: Analgesic activity, ED50) [mg/kg] |
| --- | --- | --- | --- | --- | --- | --- | --- | --- | --- |
| COc1cc2c(cc1OC)C1C(CCl)CN1CC2.I (stereo not shown) [Compound A, 1-(chloromethyl)-7,8-dimethoxy-1,4,5,9b-tetrahydro-2H-azeto[2,1-a]isoquinoline hydroiodide] | 75 | one and a half-times more potent | about 30% | 30.0 | 20.0 | – | – | – | – |
| CCOc1cc2c(cc1OCC)C1C(CCl)CN1CC2.Cl (stereo not shown) [Compound B, 1-(chloromethyl)-7,8-diethoxy-1,4,5,9b-tetrahydro-2H-azeto[2,1-a]isoquinoline hydrochloride] | – | – | – | 20.0 | 24.0 | 30.0 | 20.0 | – | – |
| O=C(O)c1ccccc1O [Na--salycilate, reference compound] | 110 | – | – | – | 20.0 | – | – | ineffective | 113 |
